According to US20080280933A1, “BENZIMIDAZOLYL COMPOUNDS” (priority 2006, published 2008):

Target: T1, mGluR2 receptor (metabotropic glutamate receptor 2) (Homo sapiens, UniProt Q14416)
T1 construct: expressed in transfected cells
Experiment: mGluR2 Potentiator Screen, FLIPR, EC10-EC20 glutamate challenge
Type: cell-based
Conditions: EC50 (uM)
Method: Procedure for mGluR2 Potentiator Screen NLB Methods EC10-EC20 Challenge Cell Culture and Plating:
Cells used for this screen are HEK cells stably transfected with the mGluR2 receptor (metabotropic glutamate receptor 2) and the Gα15 G protein. Clones were identified by functional activity (FLIPR). Cells are grown in growth media containing: DMEM High Glucose with Glutamine and Na Pyruvate (GIBCO), 10% (v/v) Heat inactivate FBS (GIBCO) G418 500 ug/ml (from 50 mg/ml stock) (GIBCO) and Blasticidin 3 ug/ml (from 5 mg/ml stock made in H2O) (Invitrogen).
2 days before the assay cell are trypsinized with 0.25% trysin/EDTA (GIBCO), spun down at 1000 rpm for 5 minutes, resuspended in growth media and plated on polystyrene 384 well black wall/clear bottom poly-D-lysine coated plates at a density of approximately 18,000 cells/well in a volume of 50 μL per well. One day before the assay the growth media is removed from the plates by flicking and replaced with media containing DMEM High Glucose without Glutamine and Na Pyruvate (GIBCO) and 10% (v/v) dialyzed FBS (GIBCO). The reason for the removal of glutamine the day before the assay is to minimize the amount of glutamate that will be present during the assay, as endogenous glutarnate released from the cells can reduce the fluorescent response and interfere with the FLIPR screen.
FLIPR Methods and Data Analysis:
On the day of the assay, the FLIPR assay is performed using the following methods:
The pH is adjusted to 7.4 with 1M NaOH. Prepare a 2 mM (approx.) stock solution of Fluo-4.am (Molecular Probes) dye in DMSO −22 μl DMSO per 50 ug vial (440 μL per 1 mg vial). Make a 1 mM (approx.) flou-4, PA working solution per vial by adding 22 μl of 20% pluronic acid (PA) (Molecular Probes) in DMSO to each 50 ug vial (440 μL per 1 mg vial). Prepare a 250 mM Probenecid (Sigma) stock solution by dissolving 0.71 g into 5 ml 1N NaOH and 5 ml assay buffer (for each liter of assay wash buffer). Make 4 uM (approx.) dye incubation media by adding 2.50 ug vials per 11 ml DMEM high glucose without glutamine (220 ml per 1 mg vial). Add 110 μL probenecid stock per 11 ml (2.5 mM final [concentration]). To the dye media add 3 units/ml of glutamic-pyruvic transaminase (GPT, Sigma) and 3 mM Na Pyruvate. The assay has worked with dye concentrations from 2 uM to 8 uM dye as well. To the assay buffer from drug preparation, add 1.83 mls DMSO and 400 μL. 15.8% P104 (from New Leads biology) per liter for final concentrations of 0.18% DMSO and 0.006% P104. To the assay buffer for cell washing, add probenecid in the same manner and concentration that was used for the dye media.
Remove growth media from cell plates by flicking. Add 50 μl/well dye solution. Incubate 1 hour at 37° C. and 5% CO2. Remove dye solution and wash 3 times with assay buffer+probenecid (100 μl probenecid stock per 10 ml buffer), leaving 30 μL/well assay buffer. Wait at least 10-15 minutes. Compounds and agonist challenge additions are performed with the FLIPR. The in addition is for test compounds, which are added as 15 μL of 4× [concentration] of potentiator. The second 2nd addition is 15 μL of 4× [concentration] of agonist or challenge. This achieves 1× concentration of all compounds only after 2nd addition. The 1st and 2nd additions are performed separately using the FLIPR, which give 2 different data files. Compounds are pretreated at least 30 minutes before agonist addition.
Results are analyzed by dividing the peak fluorescent value of the FLIPR response by the […] to achieve a ratio response. The ratios are then analyzed by curve fitting programs. Since potent compounds can give an inverted U dose response curve (due to effects on endogenous glutamate by the potentiators) points are deleted at concentrations higher than the concentration that gives the maximum effect. Maximum values for dose response curves (forced fitting) are derived from standards on the plate.
Compound Preparation and Glutamate Challenge: […]

T1 sequence (Q14416 19-872, species assumed): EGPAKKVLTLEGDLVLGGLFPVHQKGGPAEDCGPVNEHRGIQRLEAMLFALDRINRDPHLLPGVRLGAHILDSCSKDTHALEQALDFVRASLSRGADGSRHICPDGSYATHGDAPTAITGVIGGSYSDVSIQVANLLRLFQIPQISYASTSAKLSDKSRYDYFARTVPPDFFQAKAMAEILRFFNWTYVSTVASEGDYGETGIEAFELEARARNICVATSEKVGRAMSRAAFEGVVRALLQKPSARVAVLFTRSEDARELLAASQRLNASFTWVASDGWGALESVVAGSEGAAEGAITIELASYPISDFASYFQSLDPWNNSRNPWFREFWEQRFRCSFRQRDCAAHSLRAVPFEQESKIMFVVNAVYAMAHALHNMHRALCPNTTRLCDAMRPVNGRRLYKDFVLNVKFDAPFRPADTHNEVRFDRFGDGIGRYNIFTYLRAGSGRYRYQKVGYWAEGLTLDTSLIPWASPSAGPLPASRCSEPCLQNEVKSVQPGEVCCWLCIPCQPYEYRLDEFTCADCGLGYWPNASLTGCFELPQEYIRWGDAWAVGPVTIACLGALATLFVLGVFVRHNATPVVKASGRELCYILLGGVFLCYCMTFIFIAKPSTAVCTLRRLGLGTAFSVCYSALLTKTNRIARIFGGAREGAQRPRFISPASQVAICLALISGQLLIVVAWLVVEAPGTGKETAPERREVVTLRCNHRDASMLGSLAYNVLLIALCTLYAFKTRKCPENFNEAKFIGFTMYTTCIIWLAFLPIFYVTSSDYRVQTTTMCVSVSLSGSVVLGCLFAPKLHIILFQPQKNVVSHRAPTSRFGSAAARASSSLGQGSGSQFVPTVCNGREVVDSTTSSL

| Molecule | EC50 [µM] |
| --- | --- |
| CC(=O)C1(c2ccccc2)CCN(Cc2nc3ccccc3n2C)CC1 [compound 66] | > 5.23 |
| COc1cccc(C2(C#N)CCN(Cc3nc4ccccc4n3C)CC2)c1 [compound 72] | 10.6 |

Same assay, conditions: mGluR2 potentiator screen, Table 7; read-out: EC50

| Molecule | EC50 [µM] |
| --- | --- |
| CCCCOc1ccc(Cl)cc1C1CCN(Cc2nc3ccccc3n2CCOC)CC1 [compound 184] | 0.479 |
| Cn1c(CN2CCC(Cc3ccccc3)C2)nc2ccccc21 (centres unmarked) [compound 158] | 0.865 |
| FCn1c(CN2CCC(c3cc(Cl)ccc3OCC3CCCCO3)CC2)nc2ccccc21 (centres unmarked) [compound 215] | 1.57 |
| CCCCN1CC2(CCN(Cc3nc4ccccc4n3C)CC2)c2cc(C)cc(C)c21 [compound 149] | 1.64 |
| Cn1c(CN2CCC(c3ccccc3F)CC2)nc2c(Br)cccc21 [compound 157] | 0.836 |

Same assay, conditions: read-out: EC50

| Molecule | EC50 [µM] |
| --- | --- |
| CCC(C)CN1CC2(CCN(Cc3nc4ccccc4n3C)CC2)c2cc(C)cc(C)c21 (centres unmarked) [compound 148] | 4.73 |
| Cn1c(CN2CCCC(c3ccc(C(F)(F)F)cc3)CC2)nc2ccccc21 (centres unmarked) [compound 303] | 0.868 |
| COc1ccccc1C1CCN(Cc2nc3cc(C)ccc3n2C)CC1 [compound 282] | 0.0416 |
| CC(=O)N1CC2(CCN(Cc3nc4ccccc4n3C)CC2)c2cc(Cl)ccc21 [compound 26] | 2.45 |
| COc1ccccc1C1(OC)CCN(Cc2nc3ccccc3n2C)CC1C (centres unmarked) [compound 332] | 5.22 |
| FCCn1c(CN2CCC(c3ccc(C(F)(F)F)cc3)CC2)nc2ccccc21 [compound 242] | 0.301 |
| Cc1ccc2c(c1)C1(CCN(Cc3nc4ccccc4n3C)CC1)CN2C [compound 146] | 1.67 |
| Cc1cccc(NC(=O)c2cccc(C3CCN(Cc4nc5ccccc5n4C)CC3)c2)n1 [compound 435] | 3.3 |
| Cn1c(CN2CCC(c3ccccc3F)CC2)nc2cc(F)ccc21 [compound 351] | 0.0877 |
| Cn1c(CN2CCC(c3ccccc3C(F)(F)F)CC2)nc2c(F)cccc21 [compound 394] | 0.232 |
| CCOc1ccc(C2CCN(Cc3nc4ccccc4n3C)CC2)cc1 [compound 442] | 0.0807 |
| 2-((4-(2-Fluorophenyl)piperidin-1-yl)methyl)-1-methyl-1H-benzo[d]imidazol-5-carboxamide [Entry 363] | 5.21 |
| Cc1cc(C)c2c(c1)C1(CCN(Cc3nc4ccccc4n3C)CC1)CN2 [compound 147] | 5.81 |
| C[C@@H]1CN(Cc2nc3ccccc3n2C)CC[C@]1(C)c1cccc(NS(C)(=O)=O)c1 [compound 80] | > 1.25 |
| COc1ccccc1C1CCN(Cc2nc3cc(C#N)ccc3n2C)CC1 [compound 283] | 0.0908 |
| CCCN1CC2(CCN(Cc3nc4ccccc4n3C)CC2)c2ccccc21 [compound 130] | 3.08 |
| Cc1cc(C)c2c(c1)C1(CCN(Cc3nc4ccccc4n3C)CC1)CN2CC1CCCO1 (centres unmarked) [compound 123] | 5.03 |
| COc1cc(C(F)(F)F)ccc1C1CCN(Cc2nc3c(Br)cccc3n2C)CC1 [compound 356] | 3.9 |
| Cn1c(CN2CCC(c3ccc(Cl)c(C(F)(F)F)c3)CC2)nc2ccccc21 [compound 446] | 0.0429 |
| COCn1c(CN2CCC(c3cc(C(F)(F)F)ccc3OC)CC2)nc2ccccc21 [compound 320] | 3.8 |
| CC(C)Oc1ccccc1C1CCN(Cc2nc3c(F)cccc3n2C)CC1 [compound 393] | 1.03 |
| Cn1c(CN2CCC(c3cc(C(F)(F)F)ccc3F)CC2)nc2cc(F)c(F)cc21 [compound 328] | 0.463 |
| CN1CC2(CCN(Cc3nc4ccccc4n3C)CC2)c2ccccc21 [compound 135] | 2.35 |
| COc1cc(C(F)(F)F)ccc1C1CCN(Cc2nc3ccccc3n2C2CC2)CC1 [compound 359] | 0.94 |
| Cn1c(CN2CCC(c3ccccc3C(F)(F)F)CC2)nc2cc(C#N)ccc21 [compound 403] | 0.224 |
| CCOc1ccc(Cl)cc1C1CCN(Cc2nc3ccccc3n2CCOC)CC1 [compound 228] | 0.185 |
| Cn1c(CN2CCC3(CC2)CN(C(=O)c2ccsc2)c2ccccc23)nc2ccccc21 [compound 49] | 1.2 |
| COc1ccccc1C1CCN(Cc2nc3cc(Br)ccc3n2C)CC1 [compound 263] | 0.242 |

| Molecule | EC50 [µM] |
| --- | --- |
| COc1ccccc1C1CCC(=O)N(Cc2nc3ccccc3n2C)CC1 (centres unmarked) [Entry 291, 5-(2-Methoxy-phenyl)-1-(1-methyl-1H-benzoimidazol-2-ylmethyl)-azepan-2-one] | 4.66 |
| COc1cccc(F)c1C1CCN(Cc2nc3ccccc3n2C)CC1 [compound 438] | 0.081 |
| Cn1c(CN2CCC(c3cccc(C(F)(F)F)c3)CC2)nc2cc(Cl)ccc21 [compound 381] | 1.59 |
| Cc1ccccc1C1CCN(Cc2nc3ccccc3n2C)CC1 [compound 429] | 0.0651 |
| COc1ccc(Cl)cc1C1CCN(Cc2nc3ccccc3n2CCF)CC1 [compound 233] | 0.264 |
| COc1ccc(C(F)(F)F)cc1C1CCN(Cc2nc3c(F)cccc3n2C)CC1 [compound 397] | 0.435 |
| Cn1c(CN2CCC(c3ccccc3OCCc3ccccn3)CC2)nc2ccccc21 [compound 97] | > 9.64 |
| C#CCOc1ccc(Cl)cc1C1CCN(Cc2nc3ccccc3n2CF)CC1 [compound 237] | 0.302 |
| Cn1c(CN2CCC(c3cccc(C(F)(F)F)c3)CC2)nc2cc(C#N)ccc21 [compound 389] | 0.285 |
| COCn1c(CN2CCC(c3ccccc3F)CC2)nc2ccccc21 [compound 286] | 4.62 |
| CCC(=O)N1CC2(CCN(Cc3nc4ccccc4n3C)CC2)c2cc(C)ccc21 [compound 23] | 0.926 |
| CCN1CC2(CCN(Cc3nc4ccccc4n3C)CC2)c2ccccc21 [compound 110] | 4.98 |
| Cn1c(CN2CCC(c3ccccc3O[C@H]3CCOC3)CC2)nc2ccccc21 [compound 101] | 5.72 |
| COCn1c(CN2CCC(c3ccc(F)cc3)CC2)nc2ccccc21 [compound 365] | 1.67 |
| COc1cc(C(F)(F)F)ccc1C1CCN(Cc2nc3cccc(F)c3n2C)CC1 [compound 406] | 0.117 |
| C[C@H]1C[C@@H](c2ccc(C(F)(F)F)cc2)CCN1Cc1nc2ccccc2n1C (relative stereo) [compound 457] | 0.454 |
| Cc1noc(C)c1C(=O)N1CC2(CCN(Cc3nc4ccccc4n3C)CC2)c2ccccc21 [compound 54] | > 5.56 |
| C[C@@H]1CN(Cc2nc3ccccc3n2C)CC[C@@H]1c1ccc(Cl)cc1F (relative stereo) [compound 461] | 0.0303 |
| COc1cc(C2CCN(Cc3nc4ccccc4n3C)CC2)ccc1F [compound 425] | 0.434 |
| Cn1c(CN2CCC(c3cc(F)cc(F)c3)CC2)nc2ccccc21 [compound 414] | 0.126 |
| COC(=O)CCCCC(=O)N1CC2(CCN(Cc3nc4ccccc4n3C)CC2)c2cc(C)ccc21 [compound 30] | 4.89 |
| C[C@@H]1CN(Cc2nc3ccccc3n2C)CC[C@@H]1c1ccc(C(F)(F)F)c(F)c1 (relative stereo) [compound 465] | 0.375 |
| 2-[4-(2-Methoxy-phenyl)-piperidin-1-ylmethyl]-1-methyl-1H-benzoimidazole-5-carboxylic acid [Entry 288] | 0.569 |
| Cn1c(CN2CCC3(CC2)CNc2ccc(Cl)cc23)nc2ccccc21 [compound 128] | > 8.98 |
| Cn1c(CN2CCC(c3cc(F)cc(F)c3)CC2)nc2cc(F)ccc21 [compound 376] | 0.299 |
| Cn1c(CN2CC[C@H]3c4ccccc4OC[C@H]3C2)nc2ccccc21 [compound 471] | 2.07 |
| CCC(=O)N1CC2(CCN(Cc3nc4ccccc4n3C)CC2)c2cc(F)ccc21 [compound 20] | 3.39 |
